# Assay: physchem
# Settings: octan-1-ol/water
Structure (SMILES),"logD (pH 7.4, LogD7.4)",logD (pH 7.4)
CC(C)C(NC(=O)Cn1c(-c2ccccc2)ccc(NS(C)(=O)=O)c1=O)C(=O)C(F)(F)F (centres undefined),1.77,–
CC(C)C(NC(=O)Cn1c(-c2ccccc2)ccc(N)c1=O)C(=O)C(F)(F)F (centres undefined),1.74,–
Nc1nccc(-c2cccs2)n1,1.75,–
CC(=O)NCc1ccc(CN2CCN(c3ccccc3)CC2)cc1,1.78,–
CCC(c1nc2ccn(C)c2c(=O)n1Cc1ccccc1)N(CCCN)C(=O)c1ccc(C)cc1 (centres undefined),1.8,–
Cc1ccc(NC(=O)c2ccnc(N3CCOCC3)c2)cc1Nc1ccnc(OC2CCN(C)CC2)n1,1.8,–
Cc1[nH]c(C(=O)NC2CCN(c3cc(C(=O)O)cc(Cl)n3)CC2)c(Cl)c1Cl,1.74,–
CC(C)Cn1c(=O)n(C)c(=O)c2c(C(=O)N3CC[C@@H](O)C3)c(Cc3cncc4ccccc34)sc21,1.74,–
Cc1ccc2c(c1)c(-c1ccnc3cc(C(F)(F)F)ccc13)c(C)n2CC(=O)O,1.78,–
CNc1nc2ccccc2n1Cc1sc2c(c1C(=O)N1C[C@H](O)CO1)c(=O)n(C)c(=O)n2CC(C)C,1.77,–
COc1ccc(C(C)NC(=O)C2(N)CCN(c3ncnc4[nH]ccc34)CC2)cc1OC (centres undefined),1.8,–
COc1ccccc1CNC(=O)c1ccc2cnccc2n1,1.8,–
O=C(Nc1cc(C(F)(F)F)cc(C(F)(F)F)c1)c1cnc(Cl)nc1C(F)(F)F,1.8,–
NC(=O)c1ccc(Br)cc1,1.75,–
CC(=O)Nc1ccc(-c2ccccc2)n(CC(=O)NC(C(=O)C(F)(F)F)C(C)C)c1=O (centres undefined),1.78,–
COc1cc2c(Nc3ccc(F)cc3F)c(C(N)=O)cnc2cc1N1CCN(C)CC1,1.75,–
NC(=O)Nc1sc(-c2ccc(F)cc2)cc1C(=O)N[C@H]1CCCNC1,1.76,–
Nc1nc(N)c2cc(Br)ccc2n1,1.78,–
Nc1ccccc1[N+](=O)[O-] [2-NITROANILINE],–,-0.96
c1ccc(-c2ccc3ccccc3n2)cc1 [2-PHENYLQUINOLINE],4,–
Nc1ncnc2ccccc12 [4-AMINOQUINAZOLINE],1.26,–
O=c1cc(-c2ccccc2)oc2ccc(O)cc12 [6-HYDROXYFLAVONE],3.6,–
"O=C1C(=O)c2ccccc2-c2ccccc21 [9,10-PHENANTHRENEQUINONE]",–,2.6
CC(=O)c1ccc(S(=O)(=O)NC(=O)NC2CCCCC2)cc1 [ACETOHEXAMIDE],-0.49,–
CCN(CC)C(=O)c1ccc(C2=CC3(CCNCC3)Oc3ccccc32)c(O)c1 [ADL-5747 FREE BASE],–,0.77

Structure (SMILES),"logD (pH 7.4, LogD7.4)",logD (pH 7.4)
CCN(CC)C(=O)c1ccc(C2=CC3(CCNCC3)Oc3cccc(O)c32)cc1 [ADL-5859],–,0.54
Cc1c(CN(C)C(=O)/C=C/c2cnc3c(c2)CCC(=O)N3)oc2ccccc12 [AFN-1252],2.36,–
Cn1ncc(Cl)c1-c1cc(C(=O)N[C@H](CN)Cc2cccc(F)c2)sc1Cl [AFURESERTIB],2.99,–
Oc1ncnc2[nH]ncc12 [ALLOPURINOL],–,-0.42
CN(C)c1nc(N(C)C)nc(N(C)C)n1 [ALTRETAMINE],2.44,–
CCC1(c2ccc(N)cc2)CCC(=O)NC1=O (centres undefined) [AMINOGLUTETHIMIDE],–,0.6
Clc1ccc([C@]23CNC[C@H]2C3)cc1Cl [AMITIFADINE],–,1.96
CC(C)c1ccc2oc3nc(N)c(C(=O)O)cc3c(=O)c2c1 [AMLEXANOX],1.1,–
CCO/N=C(\c1ccc(Br)cc1)C1CCN(C2(C)CCN(C(=O)c3c(C)cc[n+]([O-])c3C)CC2)CC1 [ANCRIVIROC],2.14,–
CNCC[C@@H](Oc1ccccc1C)c1ccccc1 [ATOMOXETINE],1.2,–
Cn1cnc([N+](=O)[O-])c1Sc1ncnc2nc[nH]c12 [AZATHIOPRINE],0.19,–
CN1CCCC(n2nc(Cc3ccc(Cl)cc3)c3ccccc3c2=O)CC1 (centres undefined) [AZELASTINE],2.46,–
CCCN1CCN(c2ccc(C(=O)NC3(C(=O)NCC#N)CCCCC3)cc2)CC1 [BALICATIB],1.33,–
NS(=O)(=O)c1cc2c(cc1C(F)(F)F)NC(Cc1ccccc1)NS2(=O)=O (centres undefined) [BENDROFLUMETHIAZIDE],1.78,–
CCOC(=O)c1ccc(N)cc1 [BENZOCAINE],1.83,–
CC(C)COCC(CN(Cc1ccccc1)c1ccccc1)N1CCCC1 (centres undefined) [BEPRIDIL],3.66,–
"COc1ccc(-c2coc3cc(OC)cc(OC)c3c2=O)cc1 [BIOCHANIN A, DIMETHYL ETHER]",3.05,–
COc1ccc(-c2coc3cc(O)cc(O)c3c2=O)cc1 [BIOCHANIN],3.5,–
OC(CCN1CCCCC1)(c1ccccc1)C1CC2C=CC1C2 (centres undefined) [BIPERIDEN],2.49,–
C[C@H](Oc1ccc(S(C)(=O)=O)cc1C(=O)N1CCN(c2ncc(C(F)(F)F)cc2F)CC1)C(F)(F)F [BITOPERTIN],3.49,–
CC(C)(C)OC(=O)c1ncn2c1[C@@H]1CCCN1C(=O)c1c(Br)cccc1-2 [BRETAZENIL],–,2.48
CCN(CC)CCNC(=O)c1cc(Br)c(N)cc1OC [BROMOPRIDE],0.54,–
CCCCN(CCCC)CCCOC(=O)c1ccc(N)cc1 [BUTACAINE],1.93,–
C=CCC1(CC(C)C)C(=O)NC(=O)NC1=O [BUTALBITAL],–,1.48
